# Source: PubChem BioAssay AID1919009 (Molecular Pharmacology Branch, DTP, NCI, 2023)
# System: K24384-001-R-PDC complex spheroid growth
# Test: Anticancer human tumor K24384-001-R-PDC patient-derived pancreatic adenocarcinoma cell line growth inhibition [AhR]
# Details: for IC50: curve of first compound; for viability, T/C: stronger effect = lower value
# How it was run: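 Spheroids combined tumor cells with HUVEC endothelial cells and human MSCs as stroma. AhR antagonists were paired with standard or investigational drugs, each dosed in half-log steps down from near clinical Cmax, or from 10 microM where Cmax was unknown.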
# 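For viability, T/C in this document: percent of DMSO vehicle-treated spheroid viability set as 100%.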
smiles,measurement,setting,value
CC1(C)CCC(CN2CCN(c3ccc(C(=O)NS(=O)(=O)c4ccc(NCC5CCOCC5)c([N+](=O)[O-])c4)c(Oc4cnc5[nH]ccc5c4)c3)CC2)=C(c2ccc(Cl)cc2)C1 + CC(CO)NC(=O)c1cc(-c2ccc(Cl)cc2)nn(-c2cnn(C)c2)c1=O,IC50,second compound 0.1 µM,> 10 µM
same,IC50,second compound 0.316 µM,> 10 µM
same,IC50,second compound 1 µM,> 10 µM
same,IC50,second compound 3.16 µM,9 µM
same,IC50,second compound 10 µM,> 10 µM
same,"viability, T/C","second compound 0.1 µM, first compound 0.0316 µM",91.4%
same,"viability, T/C","second compound 0.1 µM, first compound 0.1 µM",115%
same,"viability, T/C","second compound 0.1 µM, first compound 0.316 µM",94.4%
same,"viability, T/C","second compound 0.1 µM, first compound 1 µM",88.3%
same,"viability, T/C","second compound 0.1 µM, first compound 3.16 µM",87.9%
same,"viability, T/C","second compound 0.1 µM, first compound 10 µM",50.5%
same,"viability, T/C","second compound 0.316 µM, first compound 0.0316 µM",117%
same,"viability, T/C","second compound 0.316 µM, first compound 0.1 µM",124%
same,"viability, T/C","second compound 0.316 µM, first compound 0.316 µM",123%
same,"viability, T/C","second compound 0.316 µM, first compound 1 µM",101%
same,"viability, T/C","second compound 0.316 µM, first compound 3.16 µM",106%
same,"viability, T/C","second compound 0.316 µM, first compound 10 µM",49.9%
same,"viability, T/C","second compound 1 µM, first compound 0.0316 µM",123%
same,"viability, T/C","second compound 1 µM, first compound 0.1 µM",139%
same,"viability, T/C","second compound 1 µM, first compound 0.316 µM",123%
same,"viability, T/C","second compound 1 µM, first compound 1 µM",115%
same,"viability, T/C","second compound 1 µM, first compound 3.16 µM",110%
same,"viability, T/C","second compound 1 µM, first compound 10 µM",51.7%
same,"viability, T/C","second compound 3.16 µM, first compound 0.0316 µM",97.3%
same,"viability, T/C","second compound 3.16 µM, first compound 0.1 µM",112%
same,"viability, T/C","second compound 3.16 µM, first compound 0.316 µM",122%
same,"viability, T/C","second compound 3.16 µM, first compound 1 µM",110%
same,"viability, T/C","second compound 3.16 µM, first compound 3.16 µM",77.9%
same,"viability, T/C","second compound 3.16 µM, first compound 10 µM",47.2%
same,"viability, T/C","second compound 10 µM, first compound 0.0316 µM",101%
same,"viability, T/C","second compound 10 µM, first compound 0.1 µM",114%
same,"viability, T/C","second compound 10 µM, first compound 0.316 µM",113%
same,"viability, T/C","second compound 10 µM, first compound 1 µM",110%
same,"viability, T/C","second compound 10 µM, first compound 3.16 µM",90.2%
same,"viability, T/C","second compound 10 µM, first compound 10 µM",53%
CCN(c1cc(-c2ccc(CN3CCOCC3)cc2)cc(C(=O)NCc2c(C)cc(C)[nH]c2=O)c1C)C1CCOCC1 + CC(CO)NC(=O)c1cc(-c2ccc(Cl)cc2)nn(-c2cnn(C)c2)c1=O,IC50,second compound 0.1 µM,> 3 µM
same,IC50,second compound 0.316 µM,> 3 µM
same,IC50,second compound 1 µM,> 3 µM
same,IC50,second compound 3.16 µM,> 3 µM
same,IC50,second compound 10 µM,> 3 µM
same,"viability, T/C","second compound 0.1 µM, first compound 0.00949 µM",119%
same,"viability, T/C","second compound 0.1 µM, first compound 0.03 µM",125%
same,"viability, T/C","second compound 0.1 µM, first compound 0.0949 µM",122%
same,"viability, T/C","second compound 0.1 µM, first compound 0.3 µM",107%
same,"viability, T/C","second compound 0.1 µM, first compound 0.949 µM",95.4%
same,"viability, T/C","second compound 0.1 µM, first compound 3 µM",91.8%
same,"viability, T/C","second compound 0.316 µM, first compound 0.00949 µM",117%
same,"viability, T/C","second compound 0.316 µM, first compound 0.03 µM",135%
same,"viability, T/C","second compound 0.316 µM, first compound 0.0949 µM",125%
same,"viability, T/C","second compound 0.316 µM, first compound 0.3 µM",120%
same,"viability, T/C","second compound 0.316 µM, first compound 0.949 µM",98.2%
same,"viability, T/C","second compound 0.316 µM, first compound 3 µM",98.9%
same,"viability, T/C","second compound 1 µM, first compound 0.00949 µM",107%
same,"viability, T/C","second compound 1 µM, first compound 0.03 µM",139%
same,"viability, T/C","second compound 1 µM, first compound 0.0949 µM",154%
same,"viability, T/C","second compound 1 µM, first compound 0.3 µM",144%
same,"viability, T/C","second compound 1 µM, first compound 0.949 µM",102%
same,"viability, T/C","second compound 1 µM, first compound 3 µM",90.8%
same,"viability, T/C","second compound 3.16 µM, first compound 0.00949 µM",122%
same,"viability, T/C","second compound 3.16 µM, first compound 0.03 µM",123%
same,"viability, T/C","second compound 3.16 µM, first compound 0.0949 µM",113%
same,"viability, T/C","second compound 3.16 µM, first compound 0.3 µM",119%
same,"viability, T/C","second compound 3.16 µM, first compound 0.949 µM",113%
same,"viability, T/C","second compound 3.16 µM, first compound 3 µM",119%
same,"viability, T/C","second compound 10 µM, first compound 0.00949 µM",117%
same,"viability, T/C","second compound 10 µM, first compound 0.03 µM",123%
same,"viability, T/C","second compound 10 µM, first compound 0.0949 µM",118%
same,"viability, T/C","second compound 10 µM, first compound 0.3 µM",107%
same,"viability, T/C","second compound 10 µM, first compound 0.949 µM",99.4%
same,"viability, T/C","second compound 10 µM, first compound 3 µM",102%
